Measurements taken from US8017612B2, “Piperazine compound and use thereof as a HCV polymerase inhibitor” (priority 2006, dated 2011).

Columns and labels:
[1] = target: T1, HCV polymerase (NS5B) type 1a (Hepatitis C virus genotype 1a, UniProt P26664); assay: Assay of enzyme (HCV polymerase) inhibitory activity, type 1a enzyme; assay type: biochemical, HCV type 1a (cloned from the blood of patients)
T1 construct: made in house; host or cells: Escherichia coli (by the 'similar method' of the 1b enzyme)
Outline: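 His-tagged NS5B, C-terminal 47 residues deleted, type 1a at 1.5 μg/ml, with 5 μg/ml HCV 3′UTR substrate RNA, 50 μM ATP/GTP/CTP, 2 μM UTP plus [3H]UTP, pH 7.5 Tris, 5 mM MgCl2; 60 min at 25° C. TCA-precipitated RNA counted by scintillation; IC50 from radioactivity with vs. without compound.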

[2] = target: T2, HCV polymerase (NS5B) type 1b (Hepatitis C virus genotype 1b, UniProt P26663); assay: Assay of enzyme (HCV polymerase) inhibitory activity, type 1b enzyme; assay type: biochemical, HCV BK strain (type 1b)
T2 construct: a region encoding NS5B (J Virol 1991 March, 65(3), 1105-13, 544 amino acids after deletion of 47 amino acids on the C-terminal); 6xHis (C); made in house; host or cells: Escherichia coli
Outline: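 His-tagged, C-terminally truncated NS5B (BK strain, 1b; 0.5 μg/ml) incubated with compound 60 min at 25 °C on 3′UTR-derived substrate RNA (5 μg/ml), 50 μM ATP/GTP/CTP, 2 μM UTP plus [3H]UTP, pH 7.5. Acid-precipitated RNA counted; IC50 from radioactivity with and without compound.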

[3] = HCV polymerase inhibitory activity (IC50), 1a, type 1a enzyme 1.5 μg/ml, 25° C., 60 min
[4] = HCV polymerase inhibitory activity (IC50), 1b, type 1b enzyme 0.5 μg/ml, 25° C., 60 min
[5] = HCV polymerase inhibitory activity IC50, 1a, type 1a enzyme
[6] = HCV polymerase inhibitory activity IC50, 1b, type 1b enzyme

| SMILES | IC50 [1, 3] [nM] | IC50 [2, 4] [nM] | IC50 [1, 5] [nM] | IC50 [2, 6] [nM] |
| --- | --- | --- | --- | --- |
| CC(C)(C)c1ccc(CNC(=O)[C@H]2CN(c3nc4c(s3)CNCC4)CCN2S(=O)(=O)c2ccc(OC(F)(F)F)cc2)cc1 [Example 588, (R)-4-(4,5,6,7-tetrahydro-thiazolo[5,4-c]pyridin-2-yl)-1-(4-trifluoromethoxy-benzenesulfonyl)-piperazine-2-carboxylic acid 4-tert-butyl-benzylamide] | < 100 | < 100 |  |  |
| CCC(F)(F)c1ccc(CNC(=O)[C@H]2CN(c3cnc4cnccc4n3)CCN2S(=O)(=O)c2ccc(N(C)C)cc2)cc1 [Example 736, (R)-1-(4-dimethylamino-benzenesulfonyl)-4-pyrido[3,4-b]pyrazin-2-yl-piperazine-2-carboxylic acid 4-(1,1-difluoro-propyl)-benzylamide] |  |  | < 100 | < 100 |
| Nc1ncc2sc(N3CCN(S(=O)(=O)c4ccc(OC(F)(F)F)cc4)[C@@H](C(=O)NCc4ccc(OC(F)(F)F)cc4)C3)nc2n1 [Example 943, (R)-4-(5-amino-thiazolo[4,5-d]pyrimidin-2-yl)-1-(4-trifluoromethoxy-benzenesulfonyl)-piperazine-2-carboxylic acid 4-trifluoromethoxy-benzylamide] |  |  | < 100 | < 100 |
| CN(C)c1ccc(CNC(=O)C2CN(C(=O)CC3CCCCC3)CCN2S(=O)(=O)c2ccc(I)cc2)cc1 (centres unmarked) [Example 122, 4-(2-cyclohexyl-acetyl)-1-(4-iodo-benzenesulfonyl)-piperazine-2-carboxylic acid 4-dimethylamino-benzylamide] | > 1000 | > 1000 |  |  |
| O=C(O)c1cncc2ncc(N3CCN(S(=O)(=O)c4ccc(Cl)s4)[C@@H](C(=O)NCc4ccc(OC(F)(F)F)cc4)C3)nc12 [Example 861, 2-[(R)-4-(5-chloro-thiophene-2-sulfonyl)-3-(4-trifluoromethoxy-benzylcarbamoyl)-piperazin-1-yl]-pyrido[3,4-b]pyrazine-8-carboxylic acid] |  |  | < 100 | < 100 |
| CCC(C)(C)c1ccc(CNC(=O)[C@H]2CN(c3nc(Cl)c(C(=O)O)s3)CCN2S(=O)(=O)c2ccc(OC(F)(F)F)cc2)cc1 [Example 890, 4-chloro-2-[(R)-3-[4-(1,1-dimethyl-propyl)-benzylcarbamoyl]-4-(4-trifluoromethoxy-benzenesulfonyl)-piperazin-1-yl]-thiazole-5-carboxylic acid] |  |  | < 100 | < 100 |
| COc1nncc2nc(N3CCN(S(=O)(=O)c4ccc(OC(F)(F)F)cc4)[C@@H](C(=O)NCc4ccc(OC(F)(F)F)cc4)C3)sc12 [Example 944, (R)-4-(7-methoxy-thiazolo[4,5-d]pyridazin-2-yl)-1-(4-trifluoromethoxy-benzenesulfonyl)-piperazine-2-carboxylic acid 4-trifluoromethoxy-benzylamide] |  |  | < 100 | < 100 |
| O=C(NCc1ccc(OC(F)F)cc1)[C@H]1CN(c2nc3ncncc3s2)CCN1S(=O)(=O)c1ccc(OC(F)F)cc1 [Example 956, (R)-1-(4-difluoromethoxy-benzenesulfonyl)-4-thiazolo[4,5-d]pyrimidin-2-yl-piperazine-2-carboxylic acid 4-difluoromethoxy-benzylamide] |  |  | < 100 | < 100 |
| O=C(NCc1ccc(OC(F)(F)F)cc1)[C@H]1CN(c2nc3nc(C4CCC4)ncc3s2)CCN1S(=O)(=O)c1ccc(C(F)(F)F)cc1 [Example 1072, (R)-4-(5-cyclobutyl-thiazolo[4,5-d]pyrimidin-2-yl)-1-(4-trifluoromethyl-benzenesulfonyl)-piperazine-2-carboxylic acid 4-trifluoromethoxy-benzylamide] |  |  | < 100 | < 100 |
| CC(=O)N1CCN(S(=O)(=O)c2ccc(C(C)C)cc2)C(C(=O)NCc2ccccc2Cl)C1 (centres unmarked) [Example 34, 4-acetyl-1-(4-isopropyl-benzenesulfonyl)-piperazine-2-carboxylic acid 2-chloro-benzylamide] | > 1000 | > 1000 |  |  |
| CC(=O)NCC(=O)N1CCN(S(=O)(=O)c2ccc(C(F)(F)F)cc2)[C@@H](C(=O)NCc2ccc(C(C)C)cc2)C1 [Example 185, (R)-4-(2-acetylamino-acetyl)-1-(4-trifluoromethyl-benzenesulfonyl)-piperazine-2-carboxylic acid 4-isopropyl-benzylamide] | > 1000 | 100 to 1000 |  |  |
| O=C(NCc1ccc(OCC(F)(F)F)cc1)[C@H]1CN(c2cnc3cncnc3n2)CCN1S(=O)(=O)c1ccc(OC(F)(F)F)cc1 [Example 763, (R)-4-pteridin-7-yl-1-(4-trifluoromethoxy-benzenesulfonyl)-piperazine-2-carboxylic acid 4-(2,2,2-trifluoro-ethoxy)-benzylamide] |  |  | < 100 | < 100 |
| CC(C)c1ccc(CNC(=O)[C@H]2CN(C3=C(c4ccccc4)C(=O)NC3=O)CCN2S(=O)(=O)c2ccc(C(F)(F)F)cc2)cc1 [Example 148, (R)-4-(2,5-dioxo-4-phenyl-2,5-dihydro-1H-pyrrol-3-yl)-1-(4-trifluoromethyl-benzenesulfonyl)-piperazine-2-carboxylic acid 4-isopropyl-benzylamide] | > 1000 | > 1000 |  |  |
| CCCc1ccc(CNC(=O)[C@H]2CN(c3cnc4cncnc4n3)CCN2S(=O)(=O)c2ccc(OC(F)(F)F)cc2)cc1N [Example 722, (R)-4-pteridin-7-yl-1-(4-trifluoromethoxy-benzenesulfonyl)-piperazine-2-carboxylic acid 3-amino-4-propyl-benzylamide] |  |  | 100 to 1000 | < 100 |
| CCC(F)(F)c1ccc(CNC(=O)[C@H]2CN(c3nccc(N)n3)CCN2S(=O)(=O)c2ccc(OC(F)(F)F)cc2)cc1 [Example 585, (R)-4-(4-amino-pyrimidin-2-yl)-1-(4-trifluoromethoxy-benzenesulfonyl)-piperazine-2-carboxylic acid 4-(1,1-difluoro-propyl)-benzylamide] | 100 to 1000 | 100 to 1000 |  |  |
| COc1ccc(S(=O)(=O)N2CCN(C(C)=O)CC2C(=O)NCc2ccc(C(F)(F)F)cc2)cc1 (centres unmarked) [Example 44, 4-acetyl-1-(4-methoxy-benzenesulfonyl)-piperazine-2-carboxylic acid 4-trifluoromethyl-benzylamide] | > 1000 | > 1000 |  |  |
| CC(=O)N1CCN(S(=O)(=O)c2ccc(OC(F)(F)F)cc2)[C@@H](C(=O)NC[C@H]2CC[C@H](C(=O)O)CC2)C1 [Example 669, trans-4-({[(R)-4-acetyl-1-(4-trifluoromethoxy-benzenesulfonyl)-piperazine-2-carbonyl]-amino}-methyl)-cyclohexanecarboxylic acid] |  |  | > 1000 | > 1000 |
| COC(=O)c1cnc(N2CCN(S(=O)(=O)c3ccc(C(F)(F)F)cc3)[C@@H](C(=O)NCc3ccc(C(C)C)cc3)C2)cn1 [Example 8, (R)-3-(4-isopropyl-benzylcarbamoyl)-4-(4-trifluoromethyl-benzenesulfonyl)-3,4,5,6-tetrahydro-2H-[1,2′]bipyrazinyl-5′-carboxylic acid methyl ester] | < 100 | < 100 |  |  |
| CCCc1ccc(CNC(=O)[C@H]2CN(c3nc(C)c(S(N)(=O)=O)s3)CCN2S(=O)(=O)c2ccc(OC(F)(F)F)cc2)cc1 [Example 827, (R)-4-(4-methyl-5-sulfamoyl-thiazol-2-yl)-1-(4-trifluoromethoxy-benzenesulfonyl)-piperazine-2-carboxylic acid 4-propyl-benzylamide] |  |  | < 100 | < 100 |
